Data published in patent US9695155B2, “Herbicidal substituted pyrimidinyloxy benzene compounds” (E. I. DU PONT DE NEMOURS AND COMPANY, priority 2013, dated 2017).

Assays:
large (Lg) crabgrass = test: Test A preemergence; type: in vivo, Digitaria sanguinalis
Summary of the method: (§1)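 Greenhouse pot test, loam/sand soil. Formulation: non-phytotoxic solvent mix plus surfactant. Pre: directed spray onto soil after sowing. Post: plants at 1–2 leaf, 2–10 cm. Rated visually vs untreated controls at ~10 d, 0 (no effect) to 100 (complete control).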

pigweed [1] = test: Test A preemergence; type: in vivo, Amaranthus retroflexus
Summary of the method: as §1

blackgrass = test: Test C preemergence; type: in vivo, Alopecurus myosuroides
Summary of the method: (§2)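 Visual ratings on a 0–100 scale (100 = complete control) were made versus untreated controls after 13–15 greenhouse days. Chemicals in a surfactant-containing non-phytotoxic solvent were applied either preemergence to seeds in loam–sand soil or postemergence to 1- to 4-leaf plants 2–18 cm tall.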

Italian ryegrass = test: Test C preemergence; type: in vivo, Lolium multiflorum
Summary of the method: as §2

morningglory = test: Test C preemergence; type: in vivo, Ipomoea coccinea
Summary of the method: as §2

yellow nutsedge = test: Test C preemergence; type: in vivo, Cyperus esculentus
Summary of the method: as §2

pigweed [2] = test: Test C preemergence; type: in vivo, Amaranthus retroflexus
Summary of the method: as §2

ragweed = test: Test C preemergence; type: in vivo, Ambrosia elatior
Summary of the method: as §2

soybean = test: Test C preemergence; type: in vivo, Glycine max
Summary of the method: as §2

[3] = 500 g ai/ha, 0 to 100 scale where 0 is no effect and 100 is complete control
[4] = 16 g ai/ha, preemergence, scale 0 to 100 (0 no effect, 100 complete control)
[5] = 125 g ai/ha, preemergence, scale 0 (no effect) to 100 (complete control)
[6] = Preemergence, 62 g ai/ha, scale 0 to 100, 0 no effect, 100 complete control

## CCOc1cnn(-c2ccccc2Oc2ncc(Cl)cn2)c1 [Compound 187]
Large (Lg) crabgrass; 125 g ai/ha
  Crabgrass, Large plant response rating (0 to 100 scale): 100
Large (Lg) crabgrass; [3]
  Crabgrass, Large plant response rating: 100
Pigweed [1]; 125 g ai/ha
  Pigweed plant response rating (0 to 100 scale): 100
Pigweed [1]; [3]
  Pigweed plant response rating: 100
blackgrass; [4]
  Blackgrass plant response rating: 0
blackgrass; [5]
  Blackgrass plant response rating: 100
blackgrass; [6]
  Plant response rating, Blackgrass: 30
Italian ryegrass; [4]
  Ryegrass, Italian plant response rating: 0
Italian ryegrass; [5]
  Ryegrass, Italian plant response rating: 5
Italian ryegrass; [6]
  Plant response rating, Ryegrass, Italian: 0
morningglory; [4]
  Morningglory plant response rating: 0
morningglory; [5]
  Morningglory plant response rating: 5
morningglory; [6]
  Plant response rating, Morningglory: 0
Yellow nutsedge; [4]
  Nutsedge, Yellow plant response rating: 0
Yellow nutsedge; [5]
  Nutsedge, Yellow plant response rating: 5
Yellow nutsedge; [6]
  Plant response rating, Nutsedge, Yellow: 5
Pigweed [2]; [4]
  Pigweed plant response rating: 45
Pigweed [2]; [5]
  Pigweed plant response rating: 100
Pigweed [2]; [6]
  Plant response rating, Pigweed: 90
ragweed; [4]
  Ragweed plant response rating: 55
ragweed; [5]
  Ragweed plant response rating: 55
ragweed; [6]
  Plant response rating, Ragweed: 45
soybean; [4]
  Soybean plant response rating: 5
soybean; [5]
  Soybean plant response rating: 85
soybean; [6]
  Plant response rating, Soybean: 55

## FC(F)(F)c1cnn(-c2ccccc2Oc2ncc(Br)cn2)c1 [Compound 18, 5-bromo-2-[2-[4-(trifluoromethyl)-1H-pyrazol-1-yl]phenoxy]pyrimidine]
Large (Lg) crabgrass; Digitaria sanguinalis, pre-emergence, 240 h, 125 g ai/ha, 0 to 100 scale where 0 is no effect and 100 is complete control, read-out: Plant response rating, Crabgrass, Large
  pest or weed control at 125 g/ha: 100%
Large (Lg) crabgrass; Digitaria sanguinalis, pre-emergence, 240 h, 500 g ai/ha, 0 to 100 scale, 0 no effect, 100 complete control, approx. 10 days, read-out: Crabgrass, Large plant response rating
  pest or weed control at 500 g/ha: 100%
Pigweed [1]; Amaranthus retroflexus, pre-emergence, 125 g ai/ha, 0 to 100 scale where 0 is no effect and 100 is complete control, read-out: Plant response rating, Pigweed
  pest or weed control at 125 g/ha: 100%
Pigweed [1]; Amaranthus retroflexus, pre-emergence, 240 h, 500 g ai/ha, 0 to 100 scale, 0 no effect, 100 complete control, approx. 10 days, read-out: Pigweed plant response rating
  pest or weed control at 500 g/ha: 100%
blackgrass; Alopecurus myosuroides, pre-emergence, 62 g ai/ha, preemergence, scale 0 (no effect) to 100 (complete control), read-out: Blackgrass plant response rating
  pest or weed control at 62 g/ha: 80%
blackgrass; Alopecurus myosuroides, pre-emergence, 125 g ai/ha, preemergence, scale 0 (no effect) to 100 (complete control), read-out: Blackgrass plant response rating
  pest or weed control at 125 g/ha: 90%
blackgrass; Alopecurus myosuroides, pre-emergence, 250 g ai/ha, preemergence, scale 0 (no effect) to 100 (complete control), read-out: Blackgrass plant response rating
  pest or weed control at 250 g/ha: 90%
blackgrass; Alopecurus myosuroides, pre-emergence, Preemergence, 31 g ai/ha, scale 0 to 100, 0 no effect, 100 complete control, read-out: Plant response rating, Blackgrass
  pest or weed control at 31 g/ha: 10%
Italian ryegrass; Lolium multiflorum, pre-emergence, 62 g ai/ha, preemergence, scale 0 (no effect) to 100 (complete control), read-out: Ryegrass, Italian plant response rating
  pest or weed control at 62 g/ha: 5%
Italian ryegrass; Lolium multiflorum, pre-emergence, 125 g ai/ha, preemergence, scale 0 (no effect) to 100 (complete control), read-out: Ryegrass, Italian plant response rating
  pest or weed control at 125 g/ha: 45%
Italian ryegrass; Lolium multiflorum, pre-emergence, 250 g ai/ha, preemergence, scale 0 (no effect) to 100 (complete control), read-out: Ryegrass, Italian plant response rating
  pest or weed control at 250 g/ha: 85%
Italian ryegrass; Lolium multiflorum, pre-emergence, Preemergence, 31 g ai/ha, scale 0 to 100, 0 no effect, 100 complete control, read-out: Plant response rating, Ryegrass, Italian
  pest or weed control at 31 g/ha: 0%
morningglory; Ipomoea, pre-emergence, 62 g ai/ha, preemergence, scale 0 (no effect) to 100 (complete control), read-out: Morningglory plant response rating
  pest or weed control at 62 g/ha: 30%
morningglory; Ipomoea, pre-emergence, 125 g ai/ha, preemergence, scale 0 (no effect) to 100 (complete control), read-out: Morningglory plant response rating
  pest or weed control at 125 g/ha: 80%
morningglory; Ipomoea, pre-emergence, 250 g ai/ha, preemergence, scale 0 (no effect) to 100 (complete control), read-out: Morningglory plant response rating
  pest or weed control at 250 g/ha: 98%
morningglory; Ipomoea, pre-emergence, Preemergence, 31 g ai/ha, scale 0 to 100, 0 no effect, 100 complete control, read-out: Plant response rating, Morningglory
  pest or weed control at 31 g/ha: 10%
Yellow nutsedge; Cyperus, pre-emergence, 62 g ai/ha, preemergence, scale 0 (no effect) to 100 (complete control), read-out: Nutsedge, Yellow plant response rating
  pest or weed control at 62 g/ha: 15%
Yellow nutsedge; Cyperus, pre-emergence, 125 g ai/ha, preemergence, scale 0 (no effect) to 100 (complete control), read-out: Nutsedge, Yellow plant response rating
  pest or weed control at 125 g/ha: 25%
Yellow nutsedge; Cyperus, pre-emergence, 250 g ai/ha, preemergence, scale 0 (no effect) to 100 (complete control), read-out: Nutsedge, Yellow plant response rating
  pest or weed control at 250 g/ha: 35%
Yellow nutsedge; Cyperus, pre-emergence, Preemergence, 31 g ai/ha, scale 0 to 100, 0 no effect, 100 complete control, read-out: Plant response rating, Nutsedge, Yellow
  pest or weed control at 31 g/ha: 10%
Pigweed [2]; Amaranthus retroflexus, pre-emergence, 62 g ai/ha, preemergence, scale 0 (no effect) to 100 (complete control), read-out: Pigweed plant response rating
  pest or weed control at 62 g/ha: 100%
Pigweed [2]; Amaranthus retroflexus, pre-emergence, 125 g ai/ha, preemergence, scale 0 (no effect) to 100 (complete control), read-out: Pigweed plant response rating
  pest or weed control at 125 g/ha: 100%
Pigweed [2]; Amaranthus retroflexus, pre-emergence, 250 g ai/ha, preemergence, scale 0 (no effect) to 100 (complete control), read-out: Pigweed plant response rating
  pest or weed control at 250 g/ha: 100%
Pigweed [2]; Amaranthus retroflexus, pre-emergence, Preemergence, 31 g ai/ha, scale 0 to 100, 0 no effect, 100 complete control, read-out: Plant response rating, Pigweed
  pest or weed control at 31 g/ha: 100%
ragweed; Ambrosia artemisiifolia, pre-emergence, 62 g ai/ha, preemergence, scale 0 (no effect) to 100 (complete control), read-out: Ragweed plant response rating
  pest or weed control at 62 g/ha: 0%
ragweed; Ambrosia artemisiifolia, pre-emergence, 125 g ai/ha, preemergence, scale 0 (no effect) to 100 (complete control), read-out: Ragweed plant response rating
  pest or weed control at 125 g/ha: 10%
ragweed; Ambrosia artemisiifolia, pre-emergence, 250 g ai/ha, preemergence, scale 0 (no effect) to 100 (complete control), read-out: Ragweed plant response rating
  pest or weed control at 250 g/ha: 30%
ragweed; Ambrosia artemisiifolia, pre-emergence, Preemergence, 31 g ai/ha, scale 0 to 100, 0 no effect, 100 complete control, read-out: Plant response rating, Ragweed
  pest or weed control at 31 g/ha: 0%
soybean; Glycine max, pre-emergence, 62 g ai/ha, preemergence, scale 0 (no effect) to 100 (complete control), read-out: Soybean plant response rating
  plant injury at 62 g/ha: 65%
soybean; Glycine max, pre-emergence, 125 g ai/ha, preemergence, scale 0 (no effect) to 100 (complete control), read-out: Soybean plant response rating
  plant injury at 125 g/ha: 85%
soybean; Glycine max, pre-emergence, 250 g ai/ha, preemergence, scale 0 (no effect) to 100 (complete control), read-out: Soybean plant response rating
  plant injury at 250 g/ha: 85%
soybean; Glycine max, pre-emergence, Preemergence, 31 g ai/ha, scale 0 to 100, 0 no effect, 100 complete control, read-out: Plant response rating, Soybean
  plant injury at 31 g/ha: 25%
